# Measured values reported in patent US20210171576A1, “METHODS FOR TREATING CANCER WITH ACYLDEPSIPEPTIDE ANALOGS” (priority 2018, published 2021).
# Where a SMILES comes first, the peptide text is derived from it. Bridges are numbered along the chain shown (N, C = ends). [ ]: non-standard residue; d: D form. The star is where a group is joined. Phe(3,5-F2) = N[C@@H](Cc1cc(F)cc(F)c1)C(=O)O; Heptenoyl(2E) = CCCC/C=C/C(=O)*; aThr = C[C@H](O)[C@H](N)C(=O)O; Pip = O=C(O)[C@@H]1CCCCN1
# What was measured:
# [1] = tested on: undifferentiated SH-SY5Y cells; test: Cytotoxicity, SRB staining
# Description: To assess the cytotoxicity of ADEP analogs, cells were seeded at 1×10^3 or 2×10^3 cells in 50 μL per well on sterile 96-well flat-bottom tissue culture plates (VWR). Growth media without any cells was included as a control. Cells were grown for at least 24 hours to allow proper adherence to the growth surface. Afterwards, ADEP analogs were serially diluted and introduced to the tissue cultures via fresh growth media at 50 μL per well. Inclusion of activators/DMSO brought the final DMSO concentration of the growth media up to a maximum of 0.5% (v:v). […] A total of four independent replicates were prepared for each cell line and for each growth condition used. Cells were grown in the presence of ADEP/DMSO for 72 hours.
# To assess cell survival, live adherent cells were fixed with 10% (w:v) trichloroacetic acid (TCA) at 4° C. for 1-2 hours. The tissue culture plates were then rinsed with water to remove dead cells and cell debris and air-dried overnight. […] Absorbance at λ=510 nm (A510) was then measured using the EnSpire 2300 Multilabel Reader. […]
# (§1) To determine the IC50 for the ADEP analogs, relative cell viability (RCV) values were calculated by normalizing the A510 readings in ADEP-containing sample to the DMSO-only control. […]
# HEK293 T-REx WT cells = test: TUNEL assay, fluorescence microscopy; type: cell-based, human; details: 10 μM, 72 hours
# Description: Prior to use, the cover slips were cleaned by treatment with 1 M HCl for 2-3 days, followed by thorough rinsing with distilled water and a second treatment with 95% ethanol for 16-18 hours. The cleaned cover slips were sterilized by autoclaving and dried under UV light. To ensure proper attachment of the cells, the sterilized cover slips were coated with gelatin by application of a 0.2% solution and incubation at 37° C. for at least 2 hours. Excess gelatin solution was then removed, and the cover slips were allowed to dry in a sterile environment for 2-4 hours before use.
# WT cells treated with ADEP-41 were seeded at a density of 1×10^5 cells/mL (2 mL per well) to compensate for lack of cell growth and division resulting from the ADEP treatment. […]
# Cells were fixed in the presence of 4% formaldehyde at room temperature for 30-45 minutes, followed by membrane permeabilization with 0.1% Triton X-100 (in PBS from Gibco) supplemented with 0.1% sodium citrate at room temperature for 30 minutes. […] Cells were mounted onto standard glass microscope slides with DAPI Fluoromount-G (Southern Biotech) for visual examination using the Eclipse 80i fluorescence microscope (Nikon) equipped with the X-Cite Series 120Q excitation light source (Excelitas Technologies). Both light and fluorescence microscopic images were captured and analyzed using the NIS-Elements Basic Research Software (Nikon).
# HsCIpP = target: T1, HsCIpP (Homo sapiens, UniProt Q16740, P57S); test: Peptidase activity assay (Ac-WLA-AMC cleavage) with ADEP; type: biochemical; details: 6 μM HsCIpP, 100 μM Ac-WLA-AMC
# T1 construct: 2x(His6-thrombin)-SUMO (N, cleaved yes); made in house; host or cells: E. coli (SG1146 stated for HsClpP; 'a similar protocol' for HsClpX)
# Description: The peptidase activity of purified, untagged HsCIpP was assessed by monitoring the degradation of peptidyl substrates labelled with a C-terminal 7-amido-4-methylcoumarin (AMC) fluorophore. […] To identify a suitable peptidyl substrate, commercially available AMC-labelled peptides were purchased and tested for degradation by HsCIpP. These include N-acetyl-Trp-Leu-Ala-AMC (Ac-WLA-AMC) (R&D Systems) that was also previously used by Csizmadia et (Csizmadia et al., 2016), benzyloxycarbonyl-Arg-Arg-AMC (Z-RR-AMC) (Sigma-Aldrich), N-acetyl-Leu-Glu-His-Asp-AMC […] (Sigma-Aldrich), N-acetyl-Val-Glu-Thr-Asp-AMC (Ac-VETD-AMC) (Sigma-Aldrich), and benzyloxycarbonyl-Leu-Leu-Leu-AMC (Z-LLL-AMC) (Sigma-Aldrich). Suc-LY-AMC (MP Biomedicals) was also tested as a negative control. All stock solutions of the AMC-labelled peptides were prepared by dissolving the lyophilized peptides in DMSO at 90 mM or a lower concentration recommended by the manufacturer. […] Degradation of the peptidyl substrates and subsequent release of the free AMC moiety was monitored by fluorescence with λex=360 nm and λem=440 nm using the EnSpire 2300 Multilabel Reader (Perkin-Elmer) set to perform a reading every 30 s with 20 flashes. A total of 240 readings were collected for each of three independent replicates prepared for each peptidyl substrate. […]
# Initial degradation rates data were analyzed using the Hill model. […]
# [2] = tested on: HEK293 T-REx CLPP^−/− cells; test: Cytotoxicity, SRB staining, 72 hours; details: CLPP^−/− cells lacking endogenous HsCIpP
# Description: To assess the cytotoxicity of ADEP analogs, cells were seeded at 1×10^3 or 2×10^3 cells in 50 μL per well on sterile 96-well flat-bottom tissue culture plates (VWR). Growth media without any cells was included as a control. Cells were grown for at least 24 hours to allow proper adherence to the growth surface. Afterwards, ADEP analogs were serially diluted and introduced to the tissue cultures via fresh growth media at 50 μL per well. Inclusion of activators/DMSO brought the final DMSO concentration of the growth media up to a maximum of 0.5% (v:v). […] A total of four independent replicates were prepared for each cell line and for each growth condition used. […]
# To assess cell survival, live adherent cells were fixed with 10% (w:v) trichloroacetic acid (TCA) at 4° C. for 1-2 hours. […] Absorbance at λ=510 nm (A510) was then measured using the EnSpire 2300 Multilabel Reader. […]
# as §1
# Assessment of cytotoxicity of ADEP-14 on human breast cancer cell lines (MDA-MB-231 WT, MDA-MB-231 CLPP-KD, MDA-MB-468, and MCF-7) and HEK cells (HEK293 T-Rex and HEK293 T-REx CLPP) were determined using the methods as described above in Example 1. […] Sulforhodamine B (SRB) staining method was used to quantify cell survival.
# T1 sequence (Q16740 57-277 P57S): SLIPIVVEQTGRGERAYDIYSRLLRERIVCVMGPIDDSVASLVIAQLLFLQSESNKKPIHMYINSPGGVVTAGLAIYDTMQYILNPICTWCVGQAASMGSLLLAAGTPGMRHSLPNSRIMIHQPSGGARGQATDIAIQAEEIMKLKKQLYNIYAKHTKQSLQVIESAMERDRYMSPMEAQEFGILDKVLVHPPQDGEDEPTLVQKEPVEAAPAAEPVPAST
compound,measurement,setting,value
"CCCC/C=C/C(=O)N[C@@H](Cc1cc(F)cc(F)c1)C(=O)N[C@@H]1C(=O)N2CCC[C@H]2C(=O)N2CCCC[C@H]2C(=O)N[C@@H](C)C(=O)N2CCC[C@H]2C(=O)O[C@H]1C [ADEP-41] ({Heptenoyl(2E)}-[Phe(3,5-F2)][aThr]P[Pip]AP; ester 2-C)",IC50 compared across cell lines,[1],slightly higher value
same,TUNEL-positive cells relative to DMSO-treated WT cells,HEK293 T-REx WT cells,about 20 times
same,"Hill coefficient (h), peptidase activity",HsCIpP,1.5
same,sensitivity to ADEP-induced cytotoxicity,[2],resistant
